Laboratory results taken from US5075289A, “9-R-azacyclic erythromycin antibiotics” (priority 1988, dated 1991).
Values after ≈ are worked out from the molar mass of the structure shown. Read-outs that look alike come from different tables or passages of the source.

Columns and labels:
Assay type in all cases: cell-based
[1] = tested on: Streptococcus bovis A5169; experiment: In vitro antibacterial activity, agar dilution MIC; conditions: S. bovis A5169; Brain Heart Infusion agar, 20-24 hours; read-out: MIC
Protocol: (§1) The antimicrobial spectra of a number of compounds of the invention were tested by the following method:
(§2) Twelve petri dishes containing successive aqueous dilutions of the test compound mixed with 10 ml of sterilized Brain Heart Infusion agar (Difco 0418-01-5) are prepared. Each plate is inoculated with 1:100 (or 1:10 for slow growing strains, primarily Micrococcus and Streptococcus) dilutions of up to 32 different microorganisms, using a Steers replicator block The inoculated plates are incubated at 35°-37° C. for 20-24 hours. In addition, a control plate, using BHI agar containing no test compound, is prepared and incubated at the beginning and end of each test.
(§3) An additional plate containing a compound having known susceptibility patterns for the organisms being tested and belonging to the same antibiotic class as the test compound is also prepared and incubated as a further control, as well as to provide test-to-test comparability. Erythromycin A was used for this purpose.
(§4) After incubation, each disk is read. The MIC is defined as the lowest concentration of drug yielding no growth, a slight haze, or sparsely isolated colonies on the inoculum spot as compared to the growth control.

[2] = tested on: Staphylococcus aureus 45; experiment: In vitro antibacterial activity, agar dilution MIC
Protocol: as §1, §2, §3, §4

[3] = tested on: Micrococcus luteus ATCC 4698; experiment: In vitro antibacterial activity, agar dilution MIC
Protocol: as §1, §2, §3, §4

[4] = tested on: Escherichia coli SS; experiment: In vitro antibacterial activity, agar dilution MIC; conditions: read-out: MIC
Protocol: as §1, §2, §3, §4

[5] = tested on: Staphylococcus epidermidis 3519; experiment: In vitro antibacterial activity, agar dilution MIC; conditions: S. epidermidis 3519, Brain Heart Infusion agar, 20-24 hours, read-out: MIC
Protocol: as §1, §2, §3, §4

[6] = tested on: Staphylococcus aureus CMX 553; experiment: In vitro antibacterial activity, agar dilution MIC
Protocol: as §1, §2, §3, §4

[7] = tested on: Staphylococcus aureus A5177; experiment: In vitro antibacterial activity, agar dilution MIC; conditions: S. aureus A5177, Brain Heart Infusion agar, 20-24 hours, read-out: MIC
Protocol: as §1, §2, §3, §4

[8] = tested on: Streptococcus pyogenes EES61; experiment: In vitro antibacterial activity, agar dilution MIC; conditions: S. pyogenes EES61, Brain Heart Infusion agar, 20-24 hours, read-out: MIC
Protocol: as §1, §2, §3, §4

[9] = tested on: Staphylococcus aureus CMX 686B; experiment: In vitro antibacterial activity, agar dilution MIC; conditions: CMX686B
Protocol: as §1, §2, §3, §4

[10] = tested on: Escherichia coli DC-2; experiment: In vitro antibacterial activity, agar dilution MIC
Protocol: as §1, §2, §3, §4

[11] = tested on: Micrococcus luteus ATCC 9341; experiment: In vitro antibacterial activity, agar dilution MIC
Protocol: as §1, §2, §3, §4

[12] = tested on: Staphylococcus aureus CMX 503A; experiment: In vitro antibacterial activity, agar dilution MIC; conditions: CMX503A
Protocol: as §1, §2, §3, §4

[13] = tested on: Streptococcus agalactiae CMX 508; experiment: In vitro antibacterial activity, agar dilution MIC
Protocol: as §1, §2, §3, §4

[14] = tested on: Staphylococcus aureus ATCC 6538P; experiment: In vitro antibacterial activity, agar dilution MIC; conditions: ATCC6538P, S. aureus ATCC 6538P, Brain Heart Infusion agar, 35-37° C., 20-24 hours, read-out: MIC
Protocol: as §1, §2, §3, §4

[15] = tested on: Enterococcus faecium ATCC 8043; experiment: In vitro antibacterial activity, agar dilution MIC
Protocol: as §1, §2, §3, §4

[16] = tested on: Streptococcus pyogenes 2548 INDUC; experiment: In vitro antibacterial activity, agar dilution MIC; conditions: S. pyogenes 2548 INDUC, Brain Heart Infusion agar, 20-24 hours, read-out: MIC
Protocol: as §1, §2, §3, §4

[17] = tested on: Escherichia coli Juhl; experiment: In vitro antibacterial activity, agar dilution MIC
Protocol: as §1, §2, §3, §4

[18] = tested on: Streptococcus pyogenes 930 CONST; experiment: In vitro antibacterial activity, agar dilution MIC; conditions: 930CONST
Protocol: as §1, §2, §3, §4

[19] = tested on: Escherichia coli H560; experiment: In vitro antibacterial activity, agar dilution MIC; conditions: E. coli H560, Brain Heart Infusion agar, 20-24 hours, read-out: MIC
Protocol: as §1, §2, §3, §4

[20] = tested on: Staphylococcus aureus 45 RAR 2; experiment: microbe, parasite or virus in culture; conditions: 45RAR2
Protocol: as §1, §2, §3, §4

[21] = tested on: Staphylococcus aureus NCTC 10649; experiment: In vitro antibacterial activity, agar dilution MIC; conditions: NCTC10649, S. aureus NCTC 10649, Brain Heart Infusion agar, 20-24 hours, read-out: MIC
Protocol: as §1, §2, §3, §4

[22] = tested on: Staphylococcus aureus 642A; experiment: In vitro antibacterial activity, agar dilution MIC; conditions: S. aureus 642A, Brain Heart Infusion agar, 20-24 hours, read-out: MIC
Protocol: as §1, §2, §3, §4

[23] = S. aureus 45, Brain Heart Infusion agar, 20-24 hours, read-out: MIC
[24] = ATCC4698, M. luteus ATCC 4698, Brain Heart Infusion agar, 20-24 hours, read-out: MIC
[25] = E. coli SS, Brain Heart Infusion agar, 20-24 hours
[26] = DC2, E. coli DC-2, Brain Heart Infusion agar, 20-24 hours, read-out: MIC
[27] = ATCC9341, M. luteus ATCC 9341, Brain Heart Infusion agar, 20-24 hours, read-out: MIC
[28] = CMX508, S. agalactiae CMX 508, Brain Heart Infusion agar, 20-24 hours, read-out: MIC
[29] = ATCC8043, E. faecium ATCC 8043, Brain Heart Infusion agar, 20-24 hours, read-out: MIC
[30] = E. coli Juhl, Brain Heart Infusion agar, 20-24 hours, read-out: MIC
[31] = CMX553, S. aureus CMX 553, Brain Heart Infusion agar, 20-24 hours, read-out: MIC

Compound | MIC [1] [µg/mL] | MIC [2, 23] [µg/mL] | MIC [3, 24] [µg/mL] | MIC [4, 25] [µg/mL] | MIC [5] [µg/mL] | MIC [7] [µg/mL] | MIC [8] [µg/mL] | MIC [10, 26] [µg/mL] | MIC [11, 27] [µg/mL] | MIC [13, 28] [µg/mL] | MIC [14] [µg/mL] | MIC [15, 29] [µg/mL] | MIC [16] [µg/mL] | MIC [17, 30] [µg/mL] | MIC [18] [µg/mL] | MIC [19] [µg/mL] | MIC [20] [µg/mL] | MIC [6, 31] [µg/mL] | MIC [21] [µg/mL] | MIC [22] [µg/mL] | also measured
CC[C@H]1OC(=O)[C@H](C)[C@@H](O[C@H]2C[C@@](C)(OC)[C@@H](O)[C@H](C)O2)[C@H](C)[C@@H](O[C@@H]2O[C@H](C)C[C@H](N(C)C)[C@H]2O)[C@](C)(O)C[C@@H](C)[C@@H](N2CCNCC2)[C@H](C)[C@@H](O)[C@]1(C)O [Example 15] | 1.56 (≈ 1.94 µM) | 12.5 (≈ 15.5 µM) | 12.5 (≈ 15.5 µM) | 1.56 (≈ 1.94 µM) | 6.2 (≈ 7.71 µM) | > 100 | 1.56 (≈ 1.94 µM) | > 100 | 3.1 (≈ 3.86 µM) | 1.56 (≈ 1.94 µM) | 3.1 (≈ 3.86 µM) | 12.5 (≈ 15.5 µM) | 100 (≈ 124 µM) | > 100 | > 100 | 100 (≈ 124 µM) | 12.5 (≈ 15.5 µM) | – | – | – | MIC ([6]; CMX553): 6.2 µg/mL (≈ 7.71 µM); MIC [9]: 6.2 µg/mL (≈ 7.71 µM); MIC [12]: 6.2 µg/mL (≈ 7.71 µM)
CC[C@H]1OC(=O)[C@H](C)[C@@H](O[C@H]2C[C@@](C)(OC)[C@@H](O)[C@H](C)O2)[C@H](C)[C@@H](O[C@@H]2O[C@H](C)C[C@H](N(C)C)[C@H]2O)[C@](C)(O)C[C@@H](C)[C@@H](N2CCN(C(=O)c3ccccc3)CC2)[C@H](C)[C@@H](O)[C@]1(C)O [Example 17] | 0.39 (≈ 0.429 µM) | 0.78 (≈ 0.859 µM) | 0.78 (≈ 0.859 µM) | 3.1 (≈ 3.41 µM) | 1.56 (≈ 1.72 µM) | 12.5 (≈ 13.8 µM) | 0.39 (≈ 0.429 µM) | > 100 | – | – | 1.56 (≈ 1.72 µM) | 0.39 (≈ 0.429 µM) | 25 (≈ 27.5 µM) | > 100 | > 100 | > 100 | 3.1 (≈ 3.41 µM) | 1.56 (≈ 1.72 µM) | 1.56 (≈ 1.72 µM) | 1.56 (≈ 1.72 µM) | MIC ([11]; ATCC9341, read-out: MIC): 0.2 µg/mL (≈ 0.22 µM); MIC ([13]; CMX508, read-out: MIC): 0.2 µg/mL (≈ 0.22 µM)
CC[C@H]1OC(=O)[C@H](C)[C@@H](O[C@H]2C[C@@](C)(OC)[C@@H](O)[C@H](C)O2)[C@H](C)[C@@H](O[C@@H]2O[C@H](C)C[C@H](N(C)C)[C@H]2O)[C@](C)(O)C[C@@H](C)[C@@H](N2CCS(=O)(=O)CC2)[C@H](C)[C@@H](O)[C@]1(C)O [Example 22] | 0.39 (≈ 0.457 µM) | 6.2 (≈ 7.27 µM) | 3.1 (≈ 3.63 µM) | 1.56 (≈ 1.83 µM) | 6.2 (≈ 7.27 µM) | > 100 | 0.39 (≈ 0.457 µM) | > 100 | 0.39 (≈ 0.457 µM) | 0.39 (≈ 0.457 µM) | 3.1 (≈ 3.63 µM) | 1.56 (≈ 1.83 µM) | 100 (≈ 117 µM) | > 100 | > 100 | > 100 | 6.2 (≈ 7.27 µM) | 3.1 (≈ 3.63 µM) | 3.1 (≈ 3.63 µM) | 6.2 (≈ 7.27 µM) | –
CC[C@H]1OC(=O)[C@H](C)[C@@H](O[C@H]2C[C@@](C)(OC)[C@@H](N)[C@H](C)O2)[C@H](C)[C@@H](O[C@@H]2O[C@H](C)C[C@H](N(C)C)[C@H]2O)[C@](C)(O)C[C@@H](C)[C@@H](N2CCOCC2)[C@H](C)[C@@H](O)[C@]1(C)O [Example 33] | 0.05 (≈ 0.0622 µM) | – | – | – | 0.78 (≈ 0.97 µM) | 6.2 (≈ 7.71 µM) | 0.1 (≈ 0.124 µM) | – | 0.05 (≈ 0.0622 µM) | 0.1 (≈ 0.124 µM) | 0.78 (≈ 0.97 µM) | – | 50 (≈ 62.2 µM) | – | > 100 | 3.1 (≈ 3.86 µM) | 0.78 (≈ 0.97 µM) | 0.78 (≈ 0.97 µM) | 0.78 (≈ 0.97 µM) | 0.78 (≈ 0.97 µM) | MIC [2]; 45: 0.39 µg/mL (≈ 0.485 µM); MIC ([3]; ATCC4698): 0.39 µg/mL (≈ 0.485 µM); MIC [4]: 0.2 µg/mL (≈ 0.249 µM); MIC ([10]; DC2): 6.2 µg/mL (≈ 7.71 µM); MIC ([15]; ATCC8043, read-out: MIC): 0.2 µg/mL (≈ 0.249 µM); MIC [17]: 12.5 µg/mL (≈ 15.5 µM)
